# Bridges are numbered along the chain shown (N, C = ends). Where no end group is shown, it is not given here.
# Columns and labels:
# [1] = system: Klebsiella pneumoniae ATCC 700603 (MDR resistant strain); assay: CFU count after 24 h incubation with antibiotic alone or with grZ14s-nvCyc; assay type: cell-based
# Procedure: Klebsiella pneumoniae ATCC 700603 (MDR resistant strain: Resistant to ampicillin, aztreonam, cefoxitin, cefpodoxime, ceftazidime, chloramphenicol, piperacillin, tetracycline) (3×10^5 CFU/mL) was incubated with either ampicillin, alone or with the grZ14s-nvCyc peptide (10 nM), for 24 hours at 37° C. with shaking (250 rpm). The solutions in the tubes were diluted ten-fold with phosphate buffered saline (PBS) by serial dilutions. The diluted solutions were then seeded on a blood plate agar and incubated at 37° C. for 24 hours.
# A similar assay was performed with K. pneumoniae at lower bacterial concentrations of 2×10^3 CFU/mL.
# K. pneumoniae ATCC 700603 (MDR resistant strain: Resistant to ampicillin, aztreonam, cefoxitin, cefpodoxime, ceftazidime, chloramphenicol, piperacillin, tetracycline) (2×10^6 CFU/mL) was incubated with either cefoxitin, alone or with the grZ14s-nvCyc peptide (10 nM), for 24 hours at 37° C. with shaking (250 rpm). The solutions were then treated as described in the examples above.
# Similarly, K. pneumoniae ATCC 700603 (MDR resistant strain: Resistant to ampicillin, aztreonam, cefoxitin, cefpodoxime, ceftazidime, chloramphenicol, piperacillin, tetracycline) (4×10^6 CFU/mL) was incubated with chloramphenicol, alone or with grZ14s-nvCyc, as described in the Examples above.
# Similarly, K. pneumoniae ATCC 700603 (MDR resistant strain: Resistant to ampicillin, aztreonam, cefoxitin, cefpodoxime, ceftazidime, chloramphenicol, piperacillin, tetracycline) (1×10^3 CFU/mL) was incubated with chloramphenicol, alone or with grZ14s-nvCyc, as described in the Examples above.
# [2] = system: K. pneumoniae ATCC BAA 1705 (carbapenemase positive strain); assay: as above; assay type: cell-based, Klebsiella pneumoniae
# Procedure: K. pneumoniae ATCC BAA® 1705 (3×10^2 CFU/mL) (carbapenemase positive strain) (carbapenem-imipenem and ertapenem, amikacin, aztreonam, levofloxacin and ciprofloxacin-resistant strain) was incubated with imipenem, alone or with the grZ14s-nvCyc peptide (10 nM), for 24 hours at 37° C. with shaking (250 rpm). The solutions were then treated as described in the examples above. […]
# Similarly, K. pneumoniae ATCC BAA® 1705 (1×10^5 CFU/mL) was incubated with ciprofloxacin, alone or with grZ14s-nvCyc, as described in the Examples above. […]
# K. pneumoniae ATCC BAA® 1705 (2×10^6 CFU/mL) (carbapenem-imipenem and ertapenem, amikacin, aztreonam, levofloxacin and ciprofloxacin-resistant strain) was incubated with levofloxacin, alone or with grZ14s-nvCyc, as described in the Examples above.
# K. pneumoniae ATCC BAA® 1705 (1×10^5 CFU/mL) (carbapenem-imipenem and ertapenem, amikacin, aztreonam, levofloxacin and ciprofloxacin-resistant strain) was incubated with aztreonam, alone or with grZ14s-nvCyc, as described in the Examples above. […]
# [3] = system: methicillin sensitive S. aureus ATCC 25923 (MSSA); assay: as above; assay type: cell-based, Staphylococcus aureus
# Procedure: (§1) Staphylococcus aureus ATCC 43300 (5×10^5 CFU/mL) (MRSA strain) was incubated in 1.5 mL Eppendorf tubes with either oxacillin alone or oxacillin with the grZ14s-nvCyc peptide (10 nM) (cyclized CSVHSFDYDWYNVC) for 24 hours at 37° C. with shaking (250 rpm). The solutions in the tubes were diluted ten-fold with phosphate buffered saline (PBS) by serial dilutions. The diluted solutions were then seeded on a blood agar plate and incubated at 37° C. for 24 hours. The results represent the number of Colony Forming Unit (CFU) counts on the blood agar plates.
# As a comparison, a strain of methicillin sensitive S. aureus ATCC 25923 (5×10^5 CFU/mL) was treated with oxacillin, alone or with the grZ14s-nvCyc (10 nM).
# (§2) A similar assay was performed with S. aureus ATCC 43300 at a concentration of 7×10^6 CFU/mL. The bacterial concentration in this assay is higher (˜7×10^6 CFU/mL).
# (§3) S. aureus ATCC 33591 (MRSA strain) (5×10^7 CFU/mL) and methicillin sensitive strain (MSSA) of S. aureus ATCC 25923 (1×10^8 CFU/mL) were incubated in 1.5 mL Eppendorf tubes with either oxacillin alone or oxacillin with the grZ14s-nvCyc (10 nM) for 24 hours at 37° C. with shaking (250 rpm). The solutions in the tubes were diluted ten-fold with PBS by serial dilutions. The diluted solutions were then seeded on a blood plate agar and incubated at 37° C. for 24 hours.
# [4] = system: S. aureus ATCC 33591 (MRSA strain); assay: as above; assay type: cell-based, Staphylococcus aureus; details: 10 nM grZ14s-nvCyc
# Procedure: as §3
# S. aureus ATCC 33591 (5×10^5 CFU/mL) (MRSA strain) was incubated in 1.5 mL Eppendorf tubes with oxacillin, alone or with the grZ14s-nvCyc peptide (10 nM), for 24 hours at 37° C. with shaking (250 rpm). […] The solutions in the tubes were diluted ten-fold with phosphate buffered saline (PBS) by serial dilutions. The diluted solutions were then seeded on a blood plate agar and incubated at 37° C. for 24 hours.
# [5] = system: S. aureus ATCC BAA 1708 (MRSA strain, mupA positive); assay: CFU count after incubation with mupirocin alone or with grZ14s-nvCyc; assay type: cell-based, Staphylococcus aureus; details: 1×10^5 CFU/mL; 10 nM grZ14s-nvCyc; FIG. 12
# Procedure: as §1
# S. aureus ATCC BAA® 1708 (MRSA strain, mupA positive) (1×10^5 CFU/mL) was incubated with mupirocin, alone or with grZ14s-nvCyc as described in the Examples above.
# [6] = system: Staphylococcus aureus ATCC 43300 (MRSA strain); assay: CFU count after 24 h incubation with antibiotic alone or with grZ14s-nvCyc; assay type: cell-based; details: for bacteria killing concentration of oxacillin with grZ14s-nvCyc versus oxacillin alone: 10 nM grZ14s-nvCyc
# Procedure: as §1, §2
# [7] = system: Enterococcus faecium ATCC 700221 (vancomycin, teicoplanin and tetracyclin resistant strain); assay: as above; assay type: cell-based; details: for bacteria killing concentration of tetracyclin lower with grZ14s-nvCyc than with tetracyclin alone: grZ14s-nvCyc (10 mN)
# Procedure: Enterococcus faecium ATCC 700221 (4×10^2 CFU/mL) (vancomycin, teicoplanin and tetracyclin resistant strain) was incubated in 1.5 mL Eppendorf tubes with either vancomycin, alone or with the grZ14s-nvCyc peptide (10 nM), for 24 hours at 37° C. with shaking (250 rpm). The solutions in the tubes were diluted ten-fold with phosphate buffered saline (PBS) by serial dilutions. The diluted solutions were then seeded on a blood plate agar and incubated at 37° C. for 24 hours.
# E. faecium ATCC 700221 (2×10^2 CFU/mL) (vancomycin, teicoplanin and tetracyclin resistant strain) was incubated with either teicoplanin, alone or with the grZ14s-nvCyc peptide (10 nM), for 24 hours at 37° C. with shaking (250 rpm). The solutions were treated as described above.
# E. faecium ATCC 700221 (1×10^3 CFU/mL) (vancomycin, teicoplanin and tetracyclin resistant strain) was incubated with tetracyclin, alone or with grZ14s-nvCyc ([…]), as described in the Examples above. […] Similarly, E. faecium ATCC 700221 (2×10^5 CFU/mL) (vancomycin, teicoplanin and tetracyclin resistant strain) was incubated with tetracyclin, alone or with grZ14s-nvCyc ([…]), as described in the Examples above.
compound,measurement,setting,value
"CC1(C)S[C@@H]2[C@H](NC(=O)[C@H](N)c3ccccc3)C(=O)N2[C@H]1C(=O)O [ampicillin, reference compound]",bacteria killing by ampicillin alone,"[1]; 2×10^3 CFU/mL, FIG. 8",achieves bacteria killing with the antibiotic alone
same,bacterial killing by ampicillin alone,"[1]; 3×10^5 CFU/mL, even very high concentrations of ampicillin, FIG. 7",could not achieve bacterial killing
"C[C@H]1[C@H](NC(=O)/C(=N\OC(C)(C)C(=O)O)c2csc(N)n2)C(=O)N1S(=O)(=O)O [aztreonam, reference compound]",bacteria killing by aztreonam alone,"[2]; 1×10^3 CFU/mL, FIG. 19b",able achieve bacteria killing activity
same,bacteria killing by aztreonam alone,"[2]; 1×10^5 CFU/mL, at 1000 μg/ml aztreonam, FIG. 19",does not achieve bacteria killing
"O=C(N[C@H](CO)[C@H](O)c1ccc([N+](=O)[O-])cc1)C(Cl)Cl [chloramphenicol, reference compound]",bacteria killing by chloramphenicol alone,"[1]; 1×10^3 CFU/mL, FIG. 16",can achieve bacteria killing activity
same,bacteria killing by chloramphenicol alone,"[1]; 4×10^6 CFU/mL, at the concentration where the combination kills, FIG. 15",does not achieve bacteria killing
"Cc1onc(-c2ccccc2)c1C(=O)N[C@@H]1C(=O)N2[C@@H]1SC(C)(C)[C@@H]2C(=O)O [oxacillin, reference compound]",oxacillin concentration needed to kill the bacteria,"[3]; ~7×10^6 CFU/mL, oxacillin alone, FIG. 2",12.5 µg/mL
cyclized CSVHSFDYDWYNVC (disulfide 1-14 (inferred); not fully specified) [grZ14s-nvCyc],bacteria killing concentration of chloramphenicol with grZ14s-nvCyc lower than with chloramphenicol alone,"[1]; 1×10^3 CFU/mL, 10 nM grZ14s-nvCyc, FIG. 16",20%
same,bacteria killing concentration of ampicillin lower with grZ14s-nvCyc than with ampicillin alone,"[1]; 2×10^3 CFU/mL, 10 nM grZ14s-nvCyc, FIG. 8",100 µg/mL
same,bacteria killing concentration of cefoxitin lower with grZ14s-nvCyc than in cefoxitin alone,"[1]; 2×10^6 CFU/mL, 10 nM grZ14s-nvCyc, FIG. 9",> 80%
same,bacteria killing activity of ampicillin with grZ14s-nvCyc at lower concentrations,"[1]; 3×10^5 CFU/mL, 10 nM grZ14s-nvCyc, FIG. 7",~100%
same,bacteria killing by chloramphenicol with grZ14s-nvCyc,"[1]; 4×10^6 CFU/mL, 10 nM grZ14s-nvCyc, FIG. 15",achieves bacteria killing at a concentration where chloramphenicol alone does not achieve bacteria killing
same,bacteria killing concentration of oxacillin with grZ14s-nvCyc versus oxacillin alone,"[4]; 5×10^5 CFU/mL, FIG. 4a",much lower
same,bacteria killing concentration of oxacillin in the presence of the peptide versus oxacillin alone,"[4]; 5×10^7 CFU/mL, FIG. 3",reduced to about half
same,bacterial load in the presence of a combination of mupirocin and grZ14s-nvCyc,[5],reduced by at least one order of magnitude
same,difference between the activity of oxacillin with or without grZ14s-nvCyc,"[3]; 1×10^6 CFU/mL, 10 nM grZ14s-nvCyc, FIG. 4b",no significant difference
same,bacteria killing concentration of oxacillin in the presence of the peptide versus oxacillin alone,"[3]; 1×10^8 CFU/mL, 10 nM grZ14s-nvCyc, FIG. 3",reduced to about half
same,difference between the activity of oxacillin with or without grZ14s-nvCyc,"[3]; 5×10^5 CFU/mL, 10 nM grZ14s-nvCyc, FIG. 1b",no significant difference
same,bacteria killing concentration of ciprofloxacin lower with grZ14s-nvCyc than with ciprofloxacin alone,"[2]; 1×10^5 CFU/mL, 10 nM grZ14s-nvCyc, FIG. 14",80%
same,aztreonam concentration at which aztreonam with grZ14s-nvCyc achieves bacteria killing,"[2]; 1×10^5 CFU/mL, 10 nM grZ14s-nvCyc, FIG. 19",1000 µg/mL
same,bacteria killing concentration of amikacin with grZ14s-nvCyc lower than with amikacin alone,"[2]; 1×10^6 CFU/mL, incubated with amikacin, alone or with grZ14s-nvCyc, FIG. 17",75%
same,bacteria killing concentration of levofloxacin with grZ14s-nvCyc lower than with levofloxacin alone,"[2]; 2×10^6 CFU/mL, 10 nM grZ14s-nvCyc, FIG. 18",30%
same,bacteria killing concentration of imipenem lower with grZ14s-nvCyc than in imipenem alone,"[2]; 3×10^2 CFU/mL, 10 nM grZ14s-nvCyc, FIG. 10",> 75%
same,bacteria killing concentration of oxacillin with grZ14s-nvCyc versus oxacillin alone,"[6]; 5×10^5 CFU/mL, 24 h, 37° C., FIG. 1a",much lower
same,bacteria killing concentration of oxacillin with grZ14s-nvCyc versus oxacillin alone,"[6]; 7×10^6 CFU/mL, FIG. 2",much lower
same,"oxacillin concentration needed to kill the bacteria, with grZ14s-nvCyc","[6]; ~7×10^6 CFU/mL, oxacillin with 10 nM grZ14s-nvCyc, FIG. 2",6.25 µg/mL
same,bacteria killing concentration of tetracyclin lower with grZ14s-nvCyc than with tetracyclin alone,"[7]; 1×10^3 CFU/mL, FIG. 13a",60%
same,bacteria killing concentration of teicoplanin lower with grZ14s-nvCyc than with teicoplanin alone,"[7]; 2×10^2 CFU/mL, 10 nM grZ14s-nvCyc, FIG. 6",about 60%
same,bacteria killing concentration of tetracyclin lower with grZ14s-nvCyc than with tetracyclin alone,"[7]; 2×10^5 CFU/mL, FIG. 13b",~70%
same,bacteria killing concentration of vancomycin lower with grZ14s-nvCyc than with vancomycin alone,"[7]; 4×10^2 CFU/mL, 10 nM grZ14s-nvCyc, FIG. 5",about 50%

# — patent publication US20160303182A1, “USE OF PEPTIDES IN ANTIBIOTIC RESISTANCE” (priority 2013, published 2016)
